Source: PMC4490227, “Identification of Glycyrrhiza as the rikkunshito constituent with the highest antagonistic potential on heterologously expressed 5-HT3A receptors due to the action of flavonoids” (Frontiers in Pharmacology, 2015)
Like-named read-outs stand apart in the source and are kept apart here. One block for each molecule: values may come before it.

Target: T1, human 5-HT3A receptors (Homo sapiens, UniProt P46098)
T1 sequence (P46098 24-478): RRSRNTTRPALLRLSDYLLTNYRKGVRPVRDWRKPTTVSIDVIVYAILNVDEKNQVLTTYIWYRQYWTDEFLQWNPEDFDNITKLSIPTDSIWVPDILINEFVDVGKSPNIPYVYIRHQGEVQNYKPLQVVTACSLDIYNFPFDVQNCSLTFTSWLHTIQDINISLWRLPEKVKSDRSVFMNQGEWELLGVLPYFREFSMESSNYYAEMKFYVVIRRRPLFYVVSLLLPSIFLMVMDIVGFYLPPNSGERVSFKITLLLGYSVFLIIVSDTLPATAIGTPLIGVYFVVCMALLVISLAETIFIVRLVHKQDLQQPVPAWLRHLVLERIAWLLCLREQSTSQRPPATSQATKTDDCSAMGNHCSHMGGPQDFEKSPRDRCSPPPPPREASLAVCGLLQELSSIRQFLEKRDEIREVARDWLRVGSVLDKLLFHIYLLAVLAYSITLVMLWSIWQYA
Assay: Two-electrode voltage-clamp: modulation of 5-HT-induced currents at 5-HT3A receptors heterologously expressed in Xenopus laevis oocytes
Type: cell-based
Set-up: key to mode of antagonism: c, apparently competitive; nc, non-competitive
Settings: for synergistic effects between different herbal 5-HT3A receptor antagonists: pairs: 6-gingerol and citronellol, hesperetin and 6-shogaol (Supplementary Figure 3); for IC50: read-out: IC50 of substances; for inhibition of the 5-HT3A receptor response by solvent: solvent 1.0 Vol.-%
Experimental: The expression plasmid contains the cDNA coding for the 5-HT3A protein in pcDNA3 (Invitrogen) (Lobitz et al., [2001]). cRNAs were prepared using the AmpliCap T7 high-yield message marker kit (Epicenter, Madison, WI, USA), following the manufacturer's protocol. Xenopus laevis oocytes were obtained as previously described (Sherkheli et al., [2010]) and injected with a total amount of 7–20 ng of the receptor-coding cRNA using an injection-setup from WPI (Nanoliter 2000, Micro4). The injected oocytes were stored in ND 96 (96.0 mM NaCl, 2.0 mM KCl, 1.8 mM CaCl2, 1.0 mM MgCl2, 5.0 mM HEPES, pH 7.2, 200 U/ml penicillin, and 200 μg/ml streptomycin) at 17°C. Measurements were performed one to 5 days after cRNA injection.
The electrophysiological recordings were performed using the two-electrode voltage-clamp technique as previously described (Saras et al., [2008]). All of the measurements were performed in normal frog ringer (NFR) [115 mM NaCl, 2.5 mM KCl, 1.8 mM CaCl2, 10 mM HEPES; pH 7.2 (NaOH/HCl)] containing niflumic acid (NA) (100 μM) to block the Ca^2+-induced currents mediated by the intrinsic chloride channel (TMEM16A) or under Ca^2+-free conditions [115 mM NaCl, 2.5 mM KCl, 1.8 mM MgCl2, 10 mM HEPES; pH 7.2 (NaOH/HCl)]. All of the substances were applied after preincubation (30 s). The currents were recorded at a holding potential of typically −60 mV using the Cell Works 6.1.1. software (NPI).
As a control, we tested the competitive antagonists ondansetron (1 nM) and d-tubocurarine (20 μM) (Hope et al., [1996]) and the non-competitive antagonist picrotoxin (50 μM) (Das and Dillon, [2005]). […] Nevertheless, a definitive differentiation between competitive, allosteric, and concentration-dependent antagonists must be performed using ligand binding assays.
The concentration-response data were fitted with the Hill equation with variable slope using SigmaPlot 8.0 (SPSS). Thereby, the calculation of the EC50 and IC50-values was done. The deviations are represented by the standard error of the mean (SEM). The datasets were tested for statistically significant differences through Student's t-test using Excel 2010 (Microsoft) (^*p < 0.05; ^**p < 0.005; ^***p < 0.0005). For multiple comparisons, the significance levels were corrected via Bonferroni-correction.

[1] = from comparison of inhibition at 2.5 and 30 μM 5-HT
[2] = inhibition at 2.5 vs 30 μM 5-HT
[3] = read-out: Mean inhibition ± SEM [%] 5-HT [2.5 μM]
[4] = read-out: Mean inhibition ± SEM [%] 5-HT [30 μM]
[5] = substance 1 mM (Figure 2A), read-out: 5-HT3A receptor inhibition by the substances (screening)

Molecule: O=C1C[C@@H](c2ccc(O)cc2)Oc2cc(O)ccc21 [(-)-liquiritigenin]
mode of antagonism [1]: ^*/nc | mode of antagonism [2]: non-competitive | IC50: 210 ± 25 µM | inhibition at 500 µM [3]: 84.5 ± 2.4% | inhibition at 500 µM [4]: 93.5 ± 0.5% | inhibition at 1000 µM [5]: 92.8 ± 2.2%

Molecule: C=C1CCC[C@]2(C)C[C@]3(O)OC(=O)C(C)=C3C[C@@H]12 [Atractylenolide III, atractylenolide III]
mode of antagonism [1]: ns/nc | IC50: 1320 ± 145 µM | inhibition at 1000 µM [3]: 55 ± 6.2% | inhibition at 1000 µM [4]: 57.8 ± 6%

Molecule: COc1cc2c3cc1Oc1cc(ccc1O)C[C@@H]1c4c(cc(OC)c(O)c4Oc4ccc(cc4)C[C@@H]3N(C)CC2)CC[N+]1(C)C [D-tubocurarine, d-tubocurarine, reference compound]
mode of antagonism [1]: ^**/c | inhibition at 20 µM [3]: 82 ± 3.5% | inhibition at 20 µM [4]: 45.9 ± 4.8%

Molecule: C[S+](C)[O-] [DMSO, dimethyl sulfoxide]
inhibition of the 5-HT3A receptor response by solvent: 29.1 ± 4.7%

Molecule: CC1(C)[C@@H](O[C@H]2O[C@H](C(=O)O)[C@@H](O)[C@H](O)[C@H]2O[C@@H]2O[C@H](C(=O)O)[C@@H](O)[C@H](O)[C@H]2O)CC[C@]2(C)[C@H]3C(=O)C=C4[C@@H]5C[C@@](C)(C(=O)O)CC[C@]5(C)CC[C@@]4(C)[C@]3(C)CC[C@@H]12 [Glycyrrhizin, glycyrrhizin]
inhibition at 1000 µM [5]: -3.1 ± 4.3%

Molecule: COc1ccc([C@@H]2CC(=O)c3c(O)cc(O)cc3O2)cc1O [Hesperetin, hesperetin]
mode of antagonism [1]: ns/nc | synergistic effects between different herbal 5-HT3A receptor antagonists: synergistic | IC50: 218 ± 38 µM | inhibition at 1000 µM [3]: 77.3 ± 9% | inhibition at 1000 µM [4]: 79.7 ± 6.1% | 5-HT3A receptor inhibition by the substances (screening) (substance 1 mM (Figure 2A)): antagonistic effects | inhibition at 1000 µM [5]: 66.6 ± 9.3%

Molecule: COc1ccc([C@@H]2CC(=O)c3c(O)cc(O[C@@H]4O[C@H](CO[C@@H]5O[C@@H](C)[C@H](O)[C@@H](O)[C@H]5O)[C@@H](O)[C@H](O)[C@H]4O)cc3O2)cc1O [Hesperidin, hesperidin]
5-HT3A receptor inhibition by the substances (screening) (substance 1 mM (Figure 2A)): no effect | 5-HT3A receptor inhibition by the substances (screening) (substance 1 mM (Figure 2A), listed as hesperidin): −2.6 ± 5.3%

Molecule: C=CC(C)(C)c1cc(/C=C/C(=O)c2ccc(O)cc2)c(OC)cc1O [Licochalcone A, licochalcone A]
direct activation of 5-HT3A receptors: absence of the direct activation | residual current remaining (5 μM 5-HT): approximately 40% | mode of antagonism [1]: ^*/c | mode of antagonism [2]: apparent competitive antagonism | IC50: 14.4 ± 1.3 µM | inhibition at 1000 µM [3]: 76.1 ± 6.1% | inhibition at 1000 µM [4]: 58.7 ± 2.6% | inhibition at 1000 µM [5]: 70.6 ± 3.1%

Molecule: picrotoxin [reference compound]
mode of antagonism [1]: ns/nc | Mean inhibition ± SEM [%] 5-HT [2.5 μM] (substance 50 μM, 5-HT 2.5 μM, 30 s preincubation): 72.5 ± 3.7% | Mean inhibition ± SEM [%] 5-HT [30 μM] (substance 50 μM, 5-HT 30 μM, 30 s preincubation): 73.0 ± 2.8%

Now from value to molecule:

synergistic effects between different herbal 5-HT3A receptor antagonists: synergistic
Molecule: CCCCC[C@H](O)CC(=O)CCc1ccc(O)c(OC)c1 [6-gingerol]

synergistic effects between different herbal 5-HT3A receptor antagonists: synergistic
Molecule: CCCCC/C=C/C(=O)CCc1ccc(O)c(OC)c1 [6-shogaol]

inhibition of the 5-HT3A receptor response by solvent: 14.1 ± 2.6%
Molecule: CCO [Ethanol, ethanol]

mode of antagonism [1]: ^***/c | mode of antagonism [2]: apparent competitive antagonism | IC50: 28 ± 2.8 µM | inhibition at 100 µM [3]: 64.7 ± 2.1% | inhibition at 100 µM [4]: 17.3 ± 2.3% | inhibition at 100 µM (substance 100 μM (Figure 2A), read-out: 5-HT3A receptor inhibition by the substances (screening)): 62.8 ± 2.1%
Molecule: CC1(C)C=Cc2c(ccc3c2OC[C@@H](c2ccc(O)cc2O)C3)O1 [Glabridin, glabridin]

mode of antagonism [1]: ^*/c | inhibition at 0.001 µM [3]: 82.4 ± 3.4% | inhibition at 0.001 µM [4]: 57.9 ± 5.3%
Molecule: Cc1nccn1CC1CCc2c(c3ccccc3n2C)C1=O (centres unmarked) [Ondansetron, ondansetron, reference compound]

synergistic effects between different herbal 5-HT3A receptor antagonists: synergistic
Molecule: CC(C)=CCCC(C)CCO (centres unmarked) [citronellol]

5-HT3A receptor inhibition by the substances (screening) (substance 1 mM (Figure 2A)): antagonistic effects | inhibition at 1000 µM [5]: 57 ± 6.1%
Molecule: C[C@@H]1O[C@@H](OC[C@H]2O[C@@H](Oc3c(-c4ccc(O)c(O)c4)oc4cc(O)cc(O)c4c3=O)[C@H](O)[C@@H](O)[C@@H]2O)[C@H](O)[C@H](O)[C@H]1O [rutin]
